Laboratory results from patent US11293023B2, “Tunable endogenous protein degradation” (Dana-Farber Cancer Institute, Inc., priority 2015, dated 2022).
Entries after “also recorded” stand apart in the source; their conditions may differ.

Key:
Format in all cases: cell-based
[1] = system: FKBP*-KRASG12V; assay: Immunoblot of FKBP*-KRASG12V (dTAG-KRAS) degradation in NIH3T3 cells; conditions: for degradation of FKBP*-KRASG12V: 24 hours
Description: FIG. 11 is an immunoblot of NIH3T3 cells expressing KRASG12V allele fused to FKBP* in the N-terminus or C-terminus. Cells were treated with 500 nM dFKBP7 for the indicated time. Cells were harvested and immunoblotted to measure degradation of FKBP*-KRASG12V and downstream surrogates of KRAS signaling (e.g. pMEK and pAKT).
(§1) FIG. 12 is an immunoblot of NIH3T3 cells expressing FKBP* fused to the N-terminus of KRASG12V treated with 1 uM of the indicated dFKBP heterobifunctional compounds for 24 hours. Cells were harvested and immunoblotted to measure degradation of FKBP*-KRASG12V and downstream surrogates of KRAS signaling (e.g. pMEK and pAKT).
as §1, with “FIG. 13” for “FIG. 12”, “with” for “with 1 uM of”, “indicated concentrations of dFKBP13” for “indicated dFKBP heterobifunctional compounds”
FIG. 14 is an immunoblot of NIH3T3 cells expressing FKBP* fused to the N-terminus of KRASG12V treated with 1 uM dFKBP13 for the indicated time. Cells were harvested and immunoblotted to measure degradation of FKBP*-KRASG12V and downstream surrogates of KRAS signaling (e.g. pMEK and pAKT).
FIG. 15 is an immunoblot of NIH3T3 cells expressing dTAG-KRASG12V pretreated with 1 uM Carfilzomib (proteasome inhibitor), 0.5 uM MLN4924 (neddylation inhibitor), and 10 uM Lenalidomide (CRBN binding ligand) for two hours prior to a 4 hour treatment with dFKBP13.
Cells were treated with 500 nM dFKBP7 for the indicated time. Cells were harvested and immunoblotted to measure degradation of FKBP*-KRAS and downstream surrogates of KRAS signaling (e.g. pMEK and pAKT).
In an effort to identify the best performing dFKBP molecule, dTAG-KRAS degradation was profiled across a series of dFKBP molecules. Western blotting of NIH3T3 cells expressing dTAG-KRASG12V were treated with 1 μM of the indicated dFKBP heterobifunctional compounds for 24 hours. Cells were harvested and immunoblotted to measure degradation of FKBP*-KRAS and downstream surrogates of KRAS signaling (e.g. pMEK and pAKT).
Western blotting of NIH3T3 cells expressing FKBP* fused to the N-terminus of KRAS treated with the indicated concentrations of dFKBP13 for 24 hours. Cells were harvested and immunoblotted to measure degradation of FKBP*-KRAS and downstream surrogates of KRAS signaling (e.g. pMEK and pAKT).
To evaluate the kinetic control of targeted degradation of dTAG-KRAS, dFKBP13 was administered by increased duration. Western blotting of NIH3T3 cells expressing FKBP* fused to the N-terminus of KRAS treated with 1 μM dFKBP13 for the indicated time. Cells were harvested and immunoblotted to measure degradation of FKBP*-KRAS and downstream surrogates of KRAS signaling (e.g. pMEK and pAKT).
NIH3T3 cells (CRBN-WT) were engineered to express dTAG-KRASG12V. Cells were pretreated with 1 uM Carfilzomib (proteasome inhibitor), 0.5 uM MLN4924 (neddylation inhibitor), and 10 uM Lenalidomide (CRBN binding ligand) for two hours prior to a 4 hour treatment with dFKBP13. Lysates were prepared and western immunoblot analysis performed. […] Pre-treatment with the NAE1 inhibitor MLN4924 rescued dTAG-KRASG12V expression establishing dependence on CRL activity, as expected for cullin-based ubiquitin ligases that require neddylation for processive E3 ligase activity. Pre-treatment with excess Lenalidomide abolished dFKBP13-dependent dTAG-KRASG12V degradation, confirming the requirement of CRBN engagement for degradation.

[2] = molecular target: T1, FKBP* (FKBP12 F36V), HA-tagged (Homo sapiens, UniProt P62942, F37V); assay: Immunoblot of FKBP* degradation in 293FT cells (CRBN-WT or CRBN−/−); conditions: for degradation of FKBP*: 100 nM
T1 construct: expressed in transfected cells; host or cells: 293FT cells (CRBN-WT or CRBN-/-)
T1 sequence (P62942 2-108 F37V limits assumed): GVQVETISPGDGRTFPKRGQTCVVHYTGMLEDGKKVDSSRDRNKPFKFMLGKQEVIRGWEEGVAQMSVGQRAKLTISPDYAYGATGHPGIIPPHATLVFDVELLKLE
Description: 293FT cells (CRBN-WT or CRBN−/−) expressing either HA-tagged FKBP12WT or FKBP* were treated with indicated concentrations of dFKBP7 for 4 hours.
Isogenic 293FT cells (CRBN-WT or CRBN−/−) expressing either FKBP12WT or FKBP* were treated with 100 nM of either dFKBP7 or dFKBP13 for 4 hours.
Isogenic 293FT cells (CRBN-WT or CRBN−/−) expressing HA-tagged FKBP* were treated with the indicated dose of dFKBP13 for 4 hours.
(§2) 293FT cells (CRBN-WT) expressing FKBP* were pretreated with 1 uM Carfilzomib (proteasome inhibitor), 0.5 uM MLN4924 (neddylation inhibitor), and 10 uM Lenalidomide (CRBN binding ligand) for two hours prior to a 4 hour treatment with dFKBP13.
The dTAG is predicated on the selectivity of FKBP* specific ligands over endogenous, wild type FKBP. In 293T cells expressing wild type FKBP12 or FKBP*, dFKBP7 induces targeted degradation only in FKBP* expressing cells. […] 293FT cells (CRBN-WT or CRBN−/−) expressing either HA-tagged FKBP12WT or FKBP* were treated with indicated concentrations of dFKBP7 for 4 hours.
In 293T cells expressing wild type FKBP12 or FKBP*, treatment with dFKBP7 and dFKBP13 induces targeted degradation only in FKBP* expressing cells. Isogenic 293FT cells (CRBN-WT or CRBN−/−) were engineered to expressed either FKBP12WT or FKBP*. Cells were treated with 100 nM of either dFKBP7 or dFKBP13 for 4 hours before lysates were prepared for western immunoblot analysis.
In an effort to define the optimal concentration of dFKB13 heterobifunctional compound to induce degradation of FKBP*, degradation was measured upon treatment with increasing concentrations of dFKBP13. Isogenic 293FT cells (CRBN-WT or CRBN−/−) were engineered to expressed HA-tagged FKBP*. Cells were treated with the indicated dose of dFKBP13 for 4 hours before lysates were prepared for western immunoblot analysis.
as §2, with “were engineered to express FKBP*. Cells” for “expressing FKBP*”, “dFKBP13. Lysates were prepared and western immunoblot analysis performed.” for “dFKBP13.”

[3] = system: indicated proteins fused to mutant FKBP* with an HA tag; assay: Immunoblot of proteins fused to FKBP* in MV4;11 leukemia cells; conditions: MV4;11 cells, 16 hours, indicated concentrations
Description: Immunoblots of MV4;11 leukemia cells expressing indicated proteins fused to mutant FKBP* with an HA tag.
To test the general utility of the dTAG technology across several protein types, the indicated proteins fused to the dTAG in MV4;11 leukemia cells were expressed.

[4] = 293FT CRBN-WT or CRBN−/−, 4 hours

Compound	degradation of N-terminal dTAG-KRAS (FKBP*-KRASG12V) ([1]; NIH3T3, 500 nM, indicated time)	degradation of FKBP* [2, 4]	degradation of HA-tagged FKBP* ([2]; 293FT CRBN-WT or CRBN−/−, indicated concentrations, 4 hours)	degradation of proteins fused to dTAG [3]	degradation of FKBP*-KRASG12V ([1]; NIH3T3, 1 uM)	time to degradation of FKBP*-KRASG12V ([1]; NIH3T3, 1 uM, post treatment) [h]	degradation of FKBP*-KRASG12V ([1]; NIH3T3, indicated concentrations)	mechanism of dTAG-KRASG12V degradation ([1]; NIH3T3 CRBN-WT, 4 hour treatment after inhibitor pretreatment)	dose dependence of degradation of HA-tagged FKBP* ([2]; 293FT CRBN-WT or CRBN−/−, indicated dose, 4 hours)	mechanism of FKBP* degradation ([2]; 293FT CRBN-WT, 4 hour treatment after inhibitor pretreatment)
CC[C@H](C(=O)N1CCCC[C@H]1C(=O)O[C@H](CCc1ccc(OC)c(OC)c1)c1cccc(OCC(=O)NCCCOCCOCCOCCCNC(=O)COc2cccc3c2C(=O)N(C2CCC(=O)NC2=O)C3=O)c1)c1cc(OC)c(OC)c(OC)c1 (stereo partly drawn) [dFKBP7]	potent degradation; also recorded: degraded	CRBN-dependent degradation of FKBP*	CRBN-dependent degradation of FKBP*	degradation was observed with nanomolar concentrations	–	–	–	–	–	–
CC[C@H](C(=O)N1CCCC[C@H]1C(=O)O[C@H](CCc1ccc(OC)c(OC)c1)c1cccc(OCC(=O)NCCCCCCOc2cccc3c2C(=O)N(C2CCC(=O)NC2=O)C3=O)c1)c1cc(OC)c(OC)c(OC)c1 (stereo partly drawn) [dFKBP13]	–	CRBN-dependent degradation of FKBP*	–	degradation was observed with nanomolar concentrations	potent degradation	≤ 1	potent degradation	CRBN- and proteasome-dependent degradation	dose- and CRBN-dependent degradation	CRBN- and proteasome-dependent degradation
